Results on three molecules are retold here after patent US20230235022A1, “NEUTROPHIL ELASTASE BINDING PEPTIDES AND COMPOSITIONS THEREOF” (CASE WESTERN RESERVE UNIVERSITY, priority 2020, published 2023).

One data set relates to neutrophils. In words: Neutrophil viability with free or encapsulated HCQ. The class given is cell-based.
Data set [1] is described as follows: Lethality after intravenous administration of HCQ in mouse. The data set is classed as in vivo.
In data set [2] the target is RCL-derived NE binding peptide (NEBP).

For `CCN(CCO)CCCC(C)Nc1ccnc2cc(Cl)ccc12` (stereo not shown) [free HCQ, hydroxychloroquine], in the data set with neutrophils, the “concentration at which neutrophil viability is affected” value is recorded as ≥ 10^3 ng/ml. Besides, the lethality entry in data set [1] is on record as “high lethality”.

B1: human neutrophil elastase (h-NE) (protein)
chain: IVGGRRARPHAWPFMVSLQLRGGHFCGATLIAPNFVMSAAHCVANVNVRAVRVVLGAHNLSRREPTRQVFAVQRIFENGYDPVNLLNDIVILQLNGSATINANVQVAQLPAQGRRLGNGVQCLAMGWGLLGRNRGIASVLQELNVTVVTSLCRRSNVCTLVRGRQAGVCFGDSGSPLVCNGLIHGIASFVRGGCASGLYPDAFAPVAQFVNWIDSIIQ
In the case of B1, the “HPLC-based analysis of cleavage by NE” value in data set [2] is “such peptides are not cleaved by NE”.

B2: mouse neutrophil elastase (m-NE) (protein)
chain: IVGGRPARPHAWPFMASLQRRGGHFCGATLIARNFVMSAAHCVNGLNFRSVQVVLGAHDLRRQERTRQTFSVQRIFENGFDPSQLLNDIVIIQLNGSATINANVQVAQLPAQGQGVGDRTPCLAMGWGRLGTNRPSPSVLQELNVTVVTNMCRRRVNVCTLVPRRQAGICFGDSGGPLVCNNLVQGIDSFIRGGCGSGLYPDAFAPVAEFADWINSIIRSHNDHLLTHPKDREGRTN
Turning to B2, the “HPLC-based analysis of cleavage by NE” value in data set [2] was “such peptides are not cleaved by NE”.
